Experimental data taken from US10758534B2 (Vertex Pharmaceuticals Incorporated, priority 2014, dated 2020).

target: T1, F508del (Homo sapiens, UniProt P13569, DEL508-508); test: Protocol 1: membrane potential optical assay (FLIPR III, voltage sensing dye), identification of potentiator compounds; assay type: cell-based; conditions: Table 3, compounds of Table 1
T1 construct: expressed in transfected cells
How it was run: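 Membrane potential in forskolin-activated, temperature-rescued F508del NIH 3T3 cells is followed with a voltage-sensing dye on FLIPR III. A chloride ion gradient created at the single addition step provides the driving force, after prior compound treatment.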

T1 sequence (P13569 with tags, fused parts or gaps DEL508-508): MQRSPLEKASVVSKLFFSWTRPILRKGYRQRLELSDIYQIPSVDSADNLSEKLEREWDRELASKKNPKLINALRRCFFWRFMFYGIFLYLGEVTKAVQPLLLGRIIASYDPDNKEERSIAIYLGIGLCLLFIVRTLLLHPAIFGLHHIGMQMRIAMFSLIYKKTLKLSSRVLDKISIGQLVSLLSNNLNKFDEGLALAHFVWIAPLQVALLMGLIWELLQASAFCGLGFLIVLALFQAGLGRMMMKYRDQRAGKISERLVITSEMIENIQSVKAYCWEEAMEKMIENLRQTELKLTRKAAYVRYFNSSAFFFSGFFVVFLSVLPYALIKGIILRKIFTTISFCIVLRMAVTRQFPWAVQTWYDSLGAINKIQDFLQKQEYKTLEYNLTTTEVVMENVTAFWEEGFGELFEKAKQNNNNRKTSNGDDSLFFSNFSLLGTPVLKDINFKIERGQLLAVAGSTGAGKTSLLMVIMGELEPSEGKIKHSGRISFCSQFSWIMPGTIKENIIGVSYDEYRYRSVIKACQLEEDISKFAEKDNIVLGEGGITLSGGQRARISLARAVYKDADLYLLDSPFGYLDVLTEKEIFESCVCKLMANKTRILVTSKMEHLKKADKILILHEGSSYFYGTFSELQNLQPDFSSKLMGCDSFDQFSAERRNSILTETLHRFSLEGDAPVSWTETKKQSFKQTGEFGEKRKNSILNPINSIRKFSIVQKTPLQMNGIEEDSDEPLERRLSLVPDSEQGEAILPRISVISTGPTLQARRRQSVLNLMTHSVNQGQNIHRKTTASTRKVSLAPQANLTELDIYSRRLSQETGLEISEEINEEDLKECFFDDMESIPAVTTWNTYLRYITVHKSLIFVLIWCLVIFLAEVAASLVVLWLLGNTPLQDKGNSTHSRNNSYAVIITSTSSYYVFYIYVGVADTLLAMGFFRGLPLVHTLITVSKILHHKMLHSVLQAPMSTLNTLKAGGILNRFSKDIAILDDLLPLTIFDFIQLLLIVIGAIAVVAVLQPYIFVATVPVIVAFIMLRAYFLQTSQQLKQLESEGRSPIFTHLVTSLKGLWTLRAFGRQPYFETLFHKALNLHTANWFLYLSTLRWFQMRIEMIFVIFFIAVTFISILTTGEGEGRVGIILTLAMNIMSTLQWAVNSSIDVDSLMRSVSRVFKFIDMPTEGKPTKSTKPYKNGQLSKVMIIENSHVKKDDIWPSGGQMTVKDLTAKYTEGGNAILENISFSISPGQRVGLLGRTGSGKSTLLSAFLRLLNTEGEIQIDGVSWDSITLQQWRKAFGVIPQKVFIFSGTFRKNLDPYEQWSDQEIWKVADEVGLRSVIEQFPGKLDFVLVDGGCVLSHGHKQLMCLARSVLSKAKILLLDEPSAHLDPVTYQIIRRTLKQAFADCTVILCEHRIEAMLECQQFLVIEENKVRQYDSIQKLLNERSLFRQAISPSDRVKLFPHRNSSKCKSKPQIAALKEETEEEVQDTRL

EC30	SMILES
+++ (“+++” means <3 uM)	CC(C)(C)c1ccc(C(=O)NS(=O)(=O)c2ccc(N)cc2)c(NCc2ccccc2)n1 [Compound 1064, N-(4-aminophenyl)sulfonyl-2-(benzylamino)-6-tert-butyl-pyridine-3-carboxamide]
++ (“++” means between 3 uM and 10 uM)	Cc1ccc(-c2ccc(C(=O)NS(=O)(=O)c3nccnc3N)c(NCC3(C)CCOCC3)n2)cc1 [Compound 1066, N-(3-aminopyrazin-2-yl)sulfonyl-2-[(4-methyltetrahydropyran-4-yl)methylamino]-6-(p-tolyl)pyridine-3-carboxamide]
+++ (“+++” means <3 uM)	CC1CN(c2nc(-c3cnn(C(C)C)c3)ccc2C(=O)NS(=O)(=O)c2cccc(N)n2)C(C)(C)C1 (centres unmarked) [Compound 1067, N-[(6-amino-2-pyridyl)sulfonyl]-6-(1-isopropylpyrazol-4-yl)-2-(2,2,4-trimethylpyrrolidin-1-yl)pyridine-3-carboxamide]
+++ (“+++” means <3 uM)	Cn1ccc2cccc(Oc3nc(C(C)(C)C)ccc3C(=O)NS(=O)(=O)c3cccc(N)n3)c21 [Compound 1071, N-[(6-amino-2-pyridyl)sulfonyl]-6-tert-butyl-2-(1-methylindol-7-yl)oxy-pyridine-3-carboxamide]
++ (“++” means between 3 uM and 10 uM)	CC(C)Oc1ccc(-c2ccc(C(=O)NS(=O)(=O)c3cccc(N)n3)c(N3Cc4ccccc4C3)n2)cn1 [Compound 1072, N-[(6-amino-2-pyridyl)sulfonyl]-2-isoindolin-2-yl-6-(6-isopropoxy-3-pyridyl)pyridine-3-carboxamide]
++ (“++” means between 3 uM and 10 uM)	CC(C)Oc1ccc(-c2ccc(C(=O)NS(=O)(=O)c3ccn[nH]3)c(N3[C@H](C)CC[C@@H]3C)n2)cn1 [Compound 1074, 2-[(2S,5R)-2,5-dimethylpyrrolidin-1-yl]-6-(6-isopropoxy-3-pyridyl)-N-(1H-pyrazol-5-ylsulfonyl)pyridine-3-carboxamide]
+++ (“+++” means <3 uM)	COc1cccc2c1C(C)(C(=O)NS(=O)(=O)c1cccc(N)n1)N(Cc1c(C)cc(C)cc1C)C2 (centres unmarked) [Compound 1075, N-[(6-amino-2-pyridyl)sulfonyl]-7-methoxy-1-methyl-2-[(2,4,6-trimethylphenyl)methyl]isoindoline-1-carboxamide]
+++ (“+++” means <3 uM)	CCC(CC)Oc1ccc(-c2ccc(C(=O)NS(=O)(=O)c3cccc(N)n3)c(N3CC(C)CC3(C)C)n2)cn1 (centres unmarked) [Compound 1076, N-[(6-amino-2-pyridyl)sulfonyl]-6-[6-(1-ethylpropoxy)-3-pyridyl]-2-(2,2,4-trimethylpyrrolidin-1-yl)pyridine-3-carboxamide]
++ (“++” means between 3 uM and 10 uM)	Cc1ccc(-c2ccc(C(=O)NS(=O)(=O)c3cccc(N)n3)c(N3[C@H](C)CC[C@@H]3C)n2)cc1 [Compound 1078, N-[(6-amino-2-pyridyl)sulfonyl]-2-[(2R,5S)-2,5-dimethylpyrrolidin-1-yl]-6-(p-tolyl)pyridine-3-carboxamide]
+++ (“+++” means <3 uM)	CC(C)Oc1ccc(-c2ccc(C(=O)NS(=O)(=O)c3cccc(N)n3)c(N3CCC(Oc4ccccc4)CC3)n2)cn1 [Compound 1080, N-[(6-amino-2-pyridyl)sulfonyl]-6-(6-isopropoxy-3-pyridyl)-2-(4-phenoxy-1-piperidyl)pyridine-3-carboxamide]
++ (“++” means between 3 uM and 10 uM)	CC(C)Oc1ccc(-c2ccc(C(=O)NS(=O)(=O)c3cccc(N)n3)c(N3CC[C@H](C)C3)n2)cn1 [Compound 1081, N-[(6-amino-2-pyridyl)sulfonyl]-6-(6-isopropoxy-3-pyridyl)-2-[(3S)-3-methylpyrrolidin-1-yl]pyridine-3-carboxamide]
+ (“+” means greater than 10 uM)	Cc1cc(C)c(Cn2c(C(=O)NS(=O)(=O)c3cccc(N)c3)cc3ccc(C#N)cc32)c(C)c1 [Compound 1082, N-(3-aminophenyl)sulfonyl-6-cyano-1-[(2,4,6-trimethylphenyl)methyl]indole-2-carboxamide]
++ (“++” means between 3 uM and 10 uM)	Cc1ccc(-c2ccc(C(=O)NS(=O)(=O)c3nccnc3N)c(N3CCC(C)CC3)n2)cc1 [Compound 1084, N-(3-aminopyrazin-2-yl)sulfonyl-2-(4-methyl-1-piperidyl)-6-(p-tolyl)pyridine-3-carboxamide]
+++ (“+++” means <3 uM)	Cc1cc(C)c(CN2C(C(=O)NS(=O)(=O)c3ccc[nH]c3=O)c3ccccc3C2(C)C)c(C)c1 (centres unmarked) [Compound 1085, 3,3-dimethyl-N-[(2-oxo-1H-pyridin-3-yl)sulfonyl]-2-[(2,4,6-trimethylphenyl)methyl]isoindoline-1-carboxamide]
++ (“++” means between 3 uM and 10 uM)	CCc1cccc2c(C(=O)NS(=O)(=O)c3cccc(N)n3)n(Cc3c(C)cc(C)cc3C)nc12 [Compound 1086, N-[(6-amino-2-pyridyl)sulfonyl]-7-ethyl-2-[(2,4,6-trimethylphenyl)methyl]indazole-3-carboxamide]
+++ (“+++” means <3 uM)	CCC1CCCN1c1nc(-c2ccc(OC(C)C)nc2)ccc1C(=O)NS(=O)(=O)c1cccc(N)n1 (centres unmarked) [Compound 1087, N-[(6-amino-2-pyridyl)sulfonyl]-2-(2-ethylpyrrolidin-1-yl)-6-(6-isopropoxy-3-pyridyl)pyridine-3-carboxamide]
+++ (“+++” means <3 uM)	Cc1cc(C#N)cc(C)c1Oc1nc(C(C)(C)C)ccc1C(=O)NS(=O)(=O)c1cccc(N)n1 [Compound 1089, N-[(6-amino-2-pyridyl)sulfonyl]-6-tert-butyl-2-(4-cyano-2,6-dimethyl-phenoxy)pyridine-3-carboxamide]
+++ (“+++” means <3 uM)	Cc1cc(C)c(Oc2nc(C3CCC(C)(C)CC3)ccc2C(=O)NS(=O)(=O)c2ccc[nH]c2=O)c(C)c1 [Compound 1091, 6-(4,4-dimethylcyclohexyl)-N-[(2-oxo-1H-pyridin-3-yl)sulfonyl]-2-(2,4,6-trimethylphenoxy)pyridine-3-carboxamide]

SMILES	EC30
CC(C)COc1cc(F)cc(-c2ccc(C(=O)NS(=O)(=O)c3ccccn3)c(N3CC(C)CC3(C)C)n2)c1 (centres unmarked) [Compound 1063, 6-(3-fluoro-5-isobutoxy-phenyl)-N-(2-pyridylsulfonyl)-2-(2,2,4-trimethylpyrrolidin-1-yl)pyridine-3-carboxamide]	+++ (“+++” means <3 uM)
CC(C)COc1cc(F)cc(-c2ccc(C(=O)NS(=O)(=O)c3cccc(N)n3)c(N3CCC(C)(C)[C@H]3C)n2)c1 [Compound 1065, N-[(6-amino-2-pyridyl)sulfonyl]-6-(3-fluoro-5-isobutoxy-phenyl)-2-[(2R)-2,3,3-trimethylpyrrolidin-1-yl]pyridine-3-carboxamide]	+++ (“+++” means <3 uM)
CCC(Oc1nc(-c2cc(F)cc(OCC(C)C)c2)ccc1C(=O)NS(=O)(=O)c1cccc(N)n1)c1ccccc1 (centres unmarked) [Compound 1068, N-[(6-amino-2-pyridyl)sulfonyl]-6-(3-fluoro-5-isobutoxy-phenyl)-2-(1-phenylpropoxy)pyridine-3-carboxamide]	+++ (“+++” means <3 uM)
CC(C)COc1cc(F)cc(-c2ccc(C(=O)NS(=O)(=O)c3ccccn3)c(N3CCC(C)(C)CC3)n2)c1 [Compound 1069, 2-(4,4-dimethyl-1-piperidyl)-6-(3-fluoro-5-isobutoxy-phenyl)-N-(2-pyridylsulfonyl)pyridine-3-carboxamide]	+++ (“+++” means <3 uM)
Cc1cc(C)c(Oc2nc(OC(C)(C)C)ccc2C(=O)NS(=O)(=O)c2cccc(N)n2)c(C)c1 [Compound 1070, N-[(6-amino-2-pyridyl)sulfonyl]-6-tert-butoxy-2-(2,4,6-trimethylphenoxy)pyridine-3-carboxamide]	+++ (“+++” means <3 uM)
CC(C)COc1cc(F)cc(-c2ccc(C(=O)NS(=O)(=O)c3cccc(N)n3)c(N3CC(=O)CC3(C)C)n2)c1 [Compound 1073, N-[(6-amino-2-pyridyl)sulfonyl]-2-(2,2-dimethyl-4-oxo-pyrrolidin-1-yl)-6-(3-fluoro-5-isobutoxy-phenyl)pyridine-3-carboxamide]	+ (“+” means greater than 10 uM)
CC(C)COc1cc(F)cc(-c2ccc(C(=O)NS(=O)(=O)c3cccc(N)n3)c(OC3C[C@@H]4C[C@@H]4C3)n2)c1 (stereo partly drawn) [Compound 1077, N-[(6-amino-2-pyridyl)sulfonyl]-2-[[(1R,5S)-3-bicyclo[3.1.0]hexanyl]oxy]-6-(3-fluoro-5-isobutoxy-phenyl)pyridine-3-carboxamide]	+++ (“+++” means <3 uM)
Cc1cc(C)c(Oc2nc(-c3ccc(OCC(C)C)cc3)ccc2C(=O)NS(=O)(=O)c2ccc[nH]c2=O)c(C)c1 [Compound 1079, 6-(4-isobutoxyphenyl)-N-[(2-oxo-1H-pyridin-3-yl)sulfonyl]-2-(2,4,6-trimethylphenoxy)pyridine-3-carboxamide]	+++ (“+++” means <3 uM)
CC(C)COc1cc(F)cc(-c2ccc(C(=O)NS(=O)(=O)c3ccn[nH]3)c(N3CCC(C)CC3)n2)c1 [Compound 1083, 6-(3-fluoro-5-isobutoxy-phenyl)-2-(4-methyl-1-piperidyl)-N-(1H-pyrazol-5-ylsulfonyl)pyridine-3-carboxamide]	+++ (“+++” means <3 uM)
CC(C)COc1cc(F)cc(-c2ccc(C(=O)NS(=O)(=O)c3ccn[nH]3)c(N3CCC(OCC4CC4)CC3)n2)c1 [Compound 1088, 2-[4-(cyclopropylmethoxy)-1-piperidyl]-6-(3-fluoro-5-isobutoxy-phenyl)-N-(1H-pyrazol-5-ylsulfonyl)pyridine-3-carboxamide]	+++ (“+++” means <3 uM)
COc1cccc(S(=O)(=O)NC(=O)c2ccc(-c3cc(F)cc(OCC(C)C)c3)nc2N2CCC(C)(C)CC2)n1 [Compound 1090, 2-(4,4-dimethyl-1-piperidyl)-6-(3-fluoro-5-isobutoxy-phenyl)-N-[(6-methoxy-2-pyridyl)sulfonyl]pyridine-3-carboxamide]	+++ (“+++” means <3 uM)
